Reference: patent publication US9073857B2, “Aripiprazole type I microcrystal, aripiprazole solid preparations, and preparation method” (SHANGHAI ZHONGXI PHARMACEUTICAL CORPORATION, priority 2011, dated 2015)

Tests used:
[1] = Particle size by laser particle size distribution analyzer; assay type: physicochemical; settings: for particle size D10 / particle size D50 / particle size D90 / particle size D[4,3]: Effect Example 2, microcrystals of the Examples
Description: Measure the particle size of aripiprazole in the sample by the following methods, and compare the particle size of aripiprazole in different prescriptions and under different operating conditions.
Test Instrument: BT˜9300S laser particle size distribution analyzer (Dandong Baxter technology Co., Ltd); BT˜800 automatic loop sampling system.
Test conditions: the medium of the loop sampling system is water, with the volume of about 570 ml, and the centrifugal pump speed is 1600 rpm.
Test Method: add appropriate amount of the samples into the loop sampling system, and make the absorbance of the system up to 15%±10, turn on the ultrasonic dispersion for 3 min, continuous sample for 6 times, and gain the average particle size.
1. Dissolve 10 g aripiprazole into aqueous ethanol solution containing hydrochloric acid (the molar ratio of hydrochloric acid to aripiprazole is 1.1, the concentration of the aqueous ethanol solution is 95%, the mass of the aqueous ethanol solution is 30 g), quickly add the 10% aqueous sodium hydroxide (the molar ratio of sodium hydroxide to hydrochloric acid is 1.01) all at once while stirring. Stir for 5 min then add 100 g water, stir again for 5 min, filter the precipitated crystal, wash twice with 20 g water each time and filter each time, dry the crystal at 80° C. for 4 hours, then obtain the aripiprazole microcrystal.
(§1) 2. Dissolve 10 g aripiprazole into aqueous ethanol solution with hydrochloric acid (the molar ratio of hydrochloric acid to aripiprazole is 1.02), quickly add the 10% aqueous sodium hydroxide (the molar ratio of sodium hydroxide to hydrochloric acid is 1.0) all at once while stirring (with stirring linear speed of 160 m/min). Stir for 5 min then add 100 g water, stir again for 5 min, filter the precipitated crystal, wash twice with 20 g water each time and filter each time, dry the crystals at 80° C. for 4 hours, then obtain the aripiprazole microcrystal.
as §1, with “3. Dissolve” for “2. Dissolve”, “acid (2.3 g 36% hydrochloric acid, 28.5 g anhydrous ethanol. The concentration” for “acid (the molar ratio”, “of the aqueous ethanol solution” for “of hydrochloric acid to aripiprazole”, “is 95%),” for “is 1.02), quickly”, “1.0)” for “1.0) all at once”, “the crystal” for “the crystals”

[2] = within 45 minutes; disclosed at the Japan and South Korea Analytical Chemistry Annual Meeting in 1998; cited from earlier work
[3] = crushed by the universal grinder through mechanical pulverization; cited from earlier work

Row | Compound | particle size D10 [1] | particle size D50 [1] | particle size D90 [1] | particle size D[4,3] [1] | D[4,3] ([1]; starting aripiprazole microcrystals of Example 1) | dissolution rate [2] | average particle size [3]
1 | O=C1CCc2ccc(OCCCCN3CCN(c4cccc(Cl)c4Cl)CC3)cc2N1 [Contrastive Example 1, aripiprazole] | 9.31 micron | 29.85 micron | 60.39 micron | 32.85 micron |  |  | 
2 | O=C1CCc2ccc(OCCCCN3CCN(c4cccc(Cl)c4Cl)CC3)cc2N1 [Example 2, aripiprazole] | 1.85 micron | 10.91 micron | 29.82 micron | 14.17 micron |  |  | 
3 | O=C1CCc2ccc(OCCCCN3CCN(c4cccc(Cl)c4Cl)CC3)cc2N1 [Example 3, aripiprazole] | 1.43 micron | 11.64 micron | 34.65 micron | 15.64 micron |  |  | 
4 | O=C1CCc2ccc(OCCCCN3CCN(c4cccc(Cl)c4Cl)CC3)cc2N1 [Example 4, aripiprazole] | 1.18 micron | 8.78 micron | 24.78 micron | 10.99 micron |  |  | 
5 | O=C1CCc2ccc(OCCCCN3CCN(c4cccc(Cl)c4Cl)CC3)cc2N1 [aripiprazole type I crystal, aripiprazole] |  |  |  |  |  | less than 70% | 
6 | O=C1CCc2ccc(OCCCCN3CCN(c4cccc(Cl)c4Cl)CC3)cc2N1 [aripiprazole, 7-[4-[4-(2,3-dichlorophenyl)-1-piperazinyl]butoxy]-3,4-dihydro-2(1H)-quinolinone] |  |  |  |  |  |  | about 100 micron

Further lines, with some results ahead:

Row | particle size D10 [1] | particle size D50 [1] | particle size D90 [1] | particle size D[4,3] [1] | D[4,3] ([1]; starting aripiprazole microcrystals of Example 1) | Compound | dissolution rate [2] | average particle size [3]
7 | 0.74 micron | 4.75 micron | 16.34 micron | 6.79 micron |  | O=C1CCc2ccc(OCCCCN3CCN(c4cccc(Cl)c4Cl)CC3)cc2N1 [Example 5, aripiprazole] |  | 
8 | 1.52 micron | 9.67 micron | 32.17 micron | 13.42 micron |  | O=C1CCc2ccc(OCCCCN3CCN(c4cccc(Cl)c4Cl)CC3)cc2N1 [Example 23, aripiprazole] |  | 
9 | 1.00 micron | 3.93 micron | 8.7 micron | 4.73 micron |  | O=C1CCc2ccc(OCCCCN3CCN(c4cccc(Cl)c4Cl)CC3)cc2N1 [Example 24, aripiprazole] |  | 
10 |  |  |  |  | 32.85 mircon | O=C1CCc2ccc(OCCCCN3CCN(c4cccc(Cl)c4Cl)CC3)cc2N1 [aripiprazole microcrystals, aripiprazole] |  | 
